Experimental data published in patent US20130236610A1, “COMPOSITIONS AND METHODS FOR INHIBITING POTATO PATHOGENS” (UNIVERSITY OF IDAHO, priority 2010, published 2013).

Key:
Format in all cases: cell-based
Erwinia carotovora [1] = assay: Pure volatile in 1L jars above plates containing the pathogens, colony diameter (Example 2); conditions: 2.5 μL/L volatile, 1L jar, 23 degree C
Protocol: (§1) […] were chosen as prototype volatiles to investigate the use of plant volatiles for the control of potato blemish pathogens. Three main potato blemish pathogens were used in the study: Erwinia carotovora, Colletotrichum coccodes and Helminthosporium solani.
(§2) 1L jars were used. Pure volatile (2.5-10 μt/L) was inserted into the jars onto the side of the jar above 6cm plates containing the pathogens. Controls and treatments were incubated at 23 degree C. until the control filled the plate. Diameter of the colony (mm) from control and treatments were evaluated daily using calipers.

Colletotrichum coccodes [2] = assay: as above; conditions: 2.5 μL/L volatile, 1L jar, 23 degree C
Protocol: as §1, §2

Helminthosporium solani [3] = assay: as above; conditions: 2.5 μL/L volatile, 1L jar, 23 degree C
Protocol: as §1, §2

Colletotrichum coccodes [4] = assay: Volatile exposure of pathogen cultures on PDA in sealed mason jars, radial growth (Example 1); conditions: pure volatile, 7 days at 23° C
Protocol: (§3) In this study, acetaldehyde and 2E-hexenal were chosen as prototype volatiles in order to investigate the use of plant volatiles for the control of potato blemish pathogens in fresh-pack potato packaging. The two main potato blemish disease pathogens, Colletotrichum coccodes (black dot) and Helminthosporium solani (silver scurf) were used in the study. Cultures of the two pathogens, grown on PDA, were exposed to the pure volatiles in sealed mason jars for 7 days at 23° C. Radial fungal growth and the concentration of the volatile were measured daily and the concentration required to inhibit fungal growth was determined. […] 2E-hexenal could be used to control these and other pathogens and extend the storability and shelf-life of potatoes.

Helminthosporium solani [5] = assay: as above; conditions: pure volatile, 7 days at 23° C
Protocol: as §3

Erwinia carotovora [6] = assay: as above; conditions: pure volatile, 7 days at 23° C

Measured: inhibition of pathogen growth

CCC/C=C/C=O [2E-Hexanal]
nearly complete inhibition: Erwinia carotovora [1] | Colletotrichum coccodes [2] | Helminthosporium solani [3]

CCC/C=C/C=O [2E-hexenal]
nearly complete inhibition: Colletotrichum coccodes [4] | Helminthosporium solani [5] | Erwinia carotovora [6]
